Experiments:
A375 cells [1] = assay: Cell proliferation, monolayer A375 cells; format: cell-based; conditions: PLX4032 treatment, FIG. 1D
Procedure: (§1) A375, SK-MEL-5 and SK-MEL-28 cell lines were maintained in DMEM growth medium containing 10% FCS, 2 mM L-glutamine and 1 mM sodium pyruvate. The WM3248 cells were maintained in MCDB153:L15 (4:1) growth medium containing 2% FCS, […] insulin and 1.68 mM CaCl2. To create PLX4032-resistant cells, A375, SK-MEL-5, SK-MEL-28 and WM3248 cells were treated with […] in monolayer culture in growth medium for several weeks. The surviving cells were then expanded and cultured in increasing doses of PLX4032 up to […]. The resulting PLX4032-resistant cells, designated PLX4032-resistant (e.g., A375-PLX-R) were routinely maintained in the presence of […] PLX4032.

A375-PLX-R cells = assay: Cell proliferation, PLX4032-resistant A375-PLX-R cells; format: cell-based; conditions: FIG. 1A
Procedure: as §1

[2] = test system: A375 spheroid cell-derived tumors; assay: Tumor xenograft assay, A375 spheroid cell-derived tumors; format: in vivo, NSG mice
Procedure: (§2) Cells were grown for ten days as spheroids and a single cell suspension, prepared by trypsin digestion, was resuspended in phosphate buffered saline containing 30% Matrigel and 100 μl containing 0.1 million cells were injected subcutaneously at the two front flanks of NOD/scid/IL2 receptor gamma-knockout mice (NSG mice) using a 26.5 gauge needle. PLX4032 was dissolved in phosphate-buffered saline containing 10% DMSO and delivered at 20 mg/kg by oral gavage in […] three times per week (M/W/F). Verteporfin was dissolved in phosphate-buffered saline containing 10% DMSO and 0-100 mg/kg was delivered by intraperitoneal injection of […] three times per week (M/W/F). Five mice were used per group (two tumors per mouse) and treatment was initiated two days after tumor cell injection. Tumor growth was monitored by measuring tumor diameter and calculating tumor volume using the formula, volume=4/3π×(diameter/2)^3. Mice were euthanized by injection of 250 μl of a 2.5% stock of Avertin per mouse followed by cervical dislocation of the neck. Tumor samples were harvested to prepare extract for immunoblot and sections for immunostaining. These experiments were reviewed and approved by the University of Maryland-Baltimore Institutional Animal Care and Use Committee. The plotted values are mean±SEM and significance were determined using the students t-test.

tumor-derived A375 cells = assay: Matrigel invasion of tumor-derived A375 cells; format: cell-based; conditions: sensitive (A375) cells, invasion assayed without drug, FIG. 6G
Procedure: (§3) Tumors were initiated and treated with PLX4032 or verteporfin as above. At 4 weeks, the tumors were removed, mechanically dissociated and dispersed as single cell suspensions with 0.25% trypsin for 10 min and plated as monolayer cultures. After 24 h, the cells were harvested and seeded at 25,000 cells/well atop a 0.1 ml matrigel layer in Millicell (1 cm diameter, […]) chambers in the presence of a serum gradient (38). After 18 h, the membranes were stained with DAPI and the nuclei of migrated cells were visualized by inverted fluorescence microscopy (38).

[3] = test system: tumor-derived A375-PLX-R cells; assay: Matrigel invasion of tumor-derived A375-PLX-R cells; format: cell-based; conditions: resistant (A375-PLX-R) cells, invasion assayed without drug, FIG. 6G
Procedure: as §3

A375 cells [4] = assay: Immunofluorescence of YAP1/TAZ subcellular distribution; format: cell-based; conditions: control versus PLX4032-treated A375 cells, FIG. 2D
Procedure: Equivalent amounts of protein were electrophoresed on denaturing and reducing 10% polyacrylamide gels and transferred to nitrocellulose membrane. The membrane was blocked by 5% nonfat dry milk for one hour and incubated with 1:1000 primary antibody in 5% nonfat dry milk. Blots were rinsed in TBS-T and then incubated with secondary antibodies (1:5000) for 2 h. Secondary antibody binding was visualized using ECL Prime (Amersham) chemiluminescence detection technology. For immunostaining, cells were harvested, suspended in growth medium, and plated in LAB-TEK II Chamber Slide System. After 24 h, the cells were fixed with 4% paraformaldehyde at room temperature for 15 min, washed three with phosphate-buffered saline, in 0.1% Triton X-100 for 15 min, washed with phosphate-buffered saline, and blocked for 1 h with phosphate-buffered saline containing 7.5% fetal calf serum. Primary antibodies were added, and the slides incubated overnight at 4° C. Cells were then washed three times with phosphate-buffered saline and incubated 1 h with the appropriate Alexa Flour fluorescence probe-conjugated secondary antibody. After additional washing, the cells were stained with DAPI for 10 min prior to imaging.

pre-formed spheroids = assay: Treatment of pre-formed spheroids; format: cell-based
Procedure: Cancer cells were maintained under attached conditions in growth media containing DMEM (Invitrogen, Frederick, Md.) supplemented with 4.5 mg/ml D-glucose, […] L-glutamine, 100 mg/ml sodium pyruvate, and 5% fetal calf serum. For spheroid culture, monolayer cultures were dissociated with 0.25% trypsin and the cells were collected by centrifugation, and resuspended in spheroid media, consisting of DMEM/F12 (1:1) (DMT-10-090-CV, Mediatech INC, Manassa, Va.) containing 2% B27 serum-free supplement (17504-044, Invitrogen, Frederick, Md.) 20 ng/ml EGF (E4269, Sigma, St. Louis), 0.4% bovine serum albumin (B4287, Sigma) and […] insulin (19278 Sigma, St. Louis, Mo.) and plated at 40,000 cells per 9.6 cm^2 well in six well ultra-low attachment Costar cluster dishes (4371, Corning, Tewksbury, Mass.). Parallel cultures were plated in spheroid media on conventional plastic dishes for growth as monolayer cultures.
Identification of agents that suppress survival of PLX4032-resistant cells, or re-sensitize these cells to PLX4032, is an important goal. […] YAP1 interacts with TEAD transcription factors to drive gene expression (6,28) and a small molecular inhibitor called verteporfin has been reported to disrupt YAP1/TEAD interaction by binding to YAP1 and altering its structure (6,16). The impact of verteporfin treatment on spheroid formation and matrigel invasion in PLX4032 sensitive and resistant MCS cells was examined.

[5] = test system: melanoma cell tumor formation (MCS cells); assay: Tumor xenograft assay, verteporfin alone (FIGS. 6D-6F); format: in vivo, NSG mice; conditions: verteporfin intraperitoneal, tumor cell line not stated
Procedure: as §2

tumor-derived cells = assay: Matrigel invasion of cells from verteporfin-treated tumors; format: cell-based; conditions: FIG. 6H
Procedure: as §3

Molecule | A375 cell proliferation (A375 cells [1]) | proliferation of A375-PLX-R cells (A375-PLX-R cells) | tumor growth ([2]; PLX4032 20 mg/kg oral gavage three times per week, FIG. 6B) | p21Cip1 level in tumors ([2]; PLX4032-treated A375 tumors, FIG. 6C) | matrigel invasion of tumor-derived cells after in vivo treatment (tumor-derived A375 cells) | matrigel invasion of tumor-derived cells after in vivo treatment [3] | YAP1 intracellular distribution (A375 cells [4]) | reduction of spheroid number/integrity (pre-formed spheroids; 20 μM verteporfin, 3-day treatment, FIG. 4C legend) | pre-formed spheroids after prolonged treatment (pre-formed spheroids; prolonged verteporfin treatment (not shown)) | reduction of spheroid number/integrity (pre-formed spheroids; spheroids formed for 8 d, 3D treatment, FIG. 4C) | YAP1 and TAZ level in tumors ([5]; FIG. 6F) | tumor size / tumor formation ([5]; FIGS. 6D-6E) | matrigel invasion of tumor-derived cells after in vivo treatment (tumor-derived cells)
CCCS(=O)(=O)Nc1ccc(F)c(C(=O)c2c[nH]c3ncc(-c4ccc(Cl)cc4)cc23)c1F [PLX4032] | reduces | not suppressed | suppressed | slightly elevated | does not suppress | does not suppress | no major change |  |  |  |  |  | 
verteporfin |  |  |  |  |  |  |  | 30-50% | complete destruction | 30-50% | suppressed | reduced | reduced

Reference: patent US11246856B2, “Methods of treating resistant cancers” (University of Maryland, Baltimore, priority 2017, dated 2022)
